Data published in patent EP4141110A1 (priority 2020, dated 2021).
Several values for one entry are separate records, joined by “and”; a condition that tells them apart may be missing. Equal entries are not always repeated.

What was measured:
PC3 line = assay type: cell-based
mice = settings: mouse, in vivo

Row | Structure (SMILES) | % of PC3 death in the mixture with iRGD + 6APA ligand (PC3 line) | Therapeutic ratio × 10^-7 (mice) | daggl (cell cultures) | DCL (mice) | dCL/ daggl (mice)
1 | [Cl][Pt-2]([Cl])([Cl])([Cl])([Cl])[Cl].[NH4+].[NH4+] [(NH4)2[PtCl6], ammonium hexachloroplatinate (IV)] | 95% and 92% and 90% | 5 × 10^-7 | – | – | –
2 | O=[N+]([O-])[O-].[Ag+] [AgNO3] | 80% and 75% and 65% | 180 × 10^-7 | – | – | –
3 | O=S(=O)(O)[S-].O=S(=O)(O)[S-].[Au].[Na+].[Na+].[Na+] [AuH2Na3O6S4, aurothiosulfate] | 75% and 70% and 56% | 50 × 10^-7 | – | – | –
4 | O=[N+]([O-])[O-].O=[N+]([O-])[O-].[Cu+2] [Cu(NO3)2] | 85% and 82% and 65% | 25 × 10^-7 | – | – | –
5 | O=[N+]([O-])[O-].O=[N+]([O-])[O-].O=[N+]([O-])[O-].[Ga+3] [Ga(NO3)3, gallium trinitrate] | 90% and 82% and 75% | 9.2 × 10^-7 | 20 pg/dL | 35 µg/dL | 8
6 | [Na+].[O]=[V](=[O])[O-] [NaVO3] | 70% and 55% and 40% | 67 × 10^-7 | 1 pg/dL | 2.0 µg/dL | 1
7 | O=C([O-])[O-].O=C([O-])[O-].O=C([O-])[O-].[Tl+3].[Tl+3] [Tl2(CO3)3] | 95% and 92% and 89% | 14.6 × 10^-7 | 9 pg/dL | 19 µg/dL | 0.5
8 | O=C([O-])[O-].[Tl+].[Tl+] [Tl2CO3] | 95% and 85% and 80% | 13.1 × 10^-7 | 12 pg/dL | 21 µg/dL | 2
9 | O=[N+]([O-])[O-].O=[N+]([O-])[O-].[Zn+2] [Zn(NO3)2] | – | 50 × 10^-7 | – | – | –
10 | N.N.[Cl][Pt][Cl] [cisplatin (cis-Pt(N H3)2 Cl2), cisplatin (cis-dichlorodiamminplatin) (II), reference compound] | 95% and 88% and 82% | 7 × 10^-7 | 2 pg/dL | 3.5 µg/dL | 5
